Experiment [1] addresses GSK-3β (Homo sapiens, UniProt P49841). As to the kind of experiment: GSK-3 kinase assay (C1), GSK-3β. Format: biochemical. The note with it: 1 μM ATP; for IC50: read-out: C1 Score β. Summed up: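 Radiometric SPA at room temperature in 25 mM Tris pH 7.4 with 10 mM MgCl2, 1 mM DTT, 5.7 ng/μl GSK-3β or 0.25 ng/μl GSK-3α, 5 μM biotinylated CREB peptide and 1 μM ATP plus ^33P-ATP. Stopped after 1 h; IC50 from dose-response versus no-compound control, reported as pIC50 score bands.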

Experiment [2] deals with CDK7/cyclinH/MAT1 (h) (Homo sapiens, UniProt P50613). As to the kind of experiment: Kinase profiling C3.8 CDK7/cyclinH/MAT1 human. Format: biochemical. The settings on record: CDK7/cyclinH/MAT1, test concentration of 10^−6 M. Summed up:
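Human CDK7/cyclinH/MAT1 (5-10 mU) incubated 40 min at room temperature in 8 mM MOPS pH 7.0, 0.2 mM EDTA, 10 mM Mg acetate, 500 μM peptide substrate and [γ-^33P]ATP. Stopped with phosphoric acid; substrate phosphorylation measured by filter binding and scintillation counting.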

For experiment [3], the system named is Chang cells. Briefly: GSK-3 cellular assay (C2): 14C-D-glucose incorporation into glycogen. The note with it: increase in D-glucose incorporation into glycogen, test concentration of 10^−6 M. Format: cell-based. Here is the method:
Test compounds were tested for their ability to increase the incorporation of ^14C-D-glucose into glycogen in living cells. To do this, Chang cells (360,000 cells/well) were cultured in 0.5 ml of MEM Rega 3 medium supplemented with 10% fetal calf serum, 1% L-glutamine and 2% sodium carbonate. After 3 days, cells were washed with 0.5 ml of phosphate-buffered saline and overlayed with 1 ml of serum- and glucose-free DMEM medium. Then, 2 μl of compound in DMSO and 50 μl substrate (3 mM glucose and 0.5 μCi ^14C-D-glucose were added and the cultures were incubated for 90 min. Cells were then extracted with 0.5 ml of 20% KOH for 60 min at 37° C. and the cell lysates were transferred to 10 ml tubes containing 300 μl of 1 mg/ml glycogen as […]. Following the addition of 2 ml ethanol, total glycogen was precipitated overnight at −20° C. and the precipitates were recovered by centrifugation. Precipitates were then resuspended in 1 ml of water and transferred to scintillation counter vials. and the amount of ^14C-D-glucose incorporation into glycogen was measured by scintillation counting. Scores for the compounds according to the invention, were obtained at a test concentration of 10^−6 M. Score 1=10-30% increase, Score 2=30-60% increase, Score 3=60-80% increase and Score 4=>80% increase in D-glucose incorporation.

Experiment [4] addresses cSRC (h) (Homo sapiens, UniProt P12931). Briefly: Kinase profiling C3.9 cSRC human. Format: biochemical. The settings on record: test concentration of 10^−6 M. Here is the method: (§1) The in vitro inhibition of a panel of kinases was assessed using either the glass-fiber filter technology as described by Davies, S. P. et al., Biochem J. (2000), 351; p. 95-105. In the glass-fiber filter technology the activity of the kinase of interest is measured using an appropriate substrate that is incubated with the aforementioned kinase protein in the presence of (^33P) radiolabeled ATP. (^33P) Phosporylation of the substrate is subsequently measured as radioactivity bound on a glassfiber-filter.
(§2) All kinases are pre-diluted to a 10× working concentration prior to addition into the assay. The composition of the dilution buffer for each kinase is detailed below.
(§3) All substrates are dissolved and diluted to working stocks in de-ionised water, apart from histone H1 that is stored in 10× working stock in 20 mM MOPS pH 7.4.
(§4) In a final reaction volume of 25 μl, cSRC (h) (5-10 mU) is incubated with 8 mM MOPS pH 7.0, 0.2 mM EDTA, 250 μM KVEKIGEGTYGVVYK (Cdc2 peptide), 10 mM MgAcetate and [γ-^33P-ATP] (specific activity approx. 500 cpm/pmol, concentration as required). The reaction is initiated by the addition of the MgATP mix. After incubation for 40 minutes at room temperature, the reaction is stopped by the addition of 5 μl of a 3% phosphoric acid solution.
10 μl of the reaction is then spotted onto a P30 filtermat and washed three times for 5 minutes in 75 mM phosphoric acid and once in methanol prior to drying and scintillation counting.

For experiment [5], the target named is T1, Aurora-A (h) (Homo sapiens, UniProt O14965).
T1 sequence (O14965 1-403): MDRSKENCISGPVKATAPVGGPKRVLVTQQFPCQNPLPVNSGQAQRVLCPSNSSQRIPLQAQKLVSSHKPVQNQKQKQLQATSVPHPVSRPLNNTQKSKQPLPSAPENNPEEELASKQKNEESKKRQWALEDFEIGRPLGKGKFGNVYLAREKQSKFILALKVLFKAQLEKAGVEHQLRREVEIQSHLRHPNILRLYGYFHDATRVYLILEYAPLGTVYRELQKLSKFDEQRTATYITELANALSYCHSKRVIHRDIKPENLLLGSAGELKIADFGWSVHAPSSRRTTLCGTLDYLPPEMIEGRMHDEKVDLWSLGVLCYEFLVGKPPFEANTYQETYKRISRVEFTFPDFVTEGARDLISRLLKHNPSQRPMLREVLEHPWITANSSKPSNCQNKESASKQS
As to the kind of experiment: Kinase profiling C3.1 Aurora-A human. The experiment is classed as biochemical. The settings on record: test concentration of 10^−6 M. Here is the method: as §1, §2, §3
as §4, with “Aurora-A” for “cSRC”, “200” for “250”, “LRRASLG (Kemptide),” for “KVEKIGEGTYGVVYK (Cdc2 peptide),”, “solution. 10 μl of the reaction is then spotted onto a P30 filtermat and washed three times for 5 minutes in 50 mM phosphoric acid and once in methanol prior to drying and scintillation counting.” for “solution.”

Sequence of cSRC (h) (P12931 whole entry): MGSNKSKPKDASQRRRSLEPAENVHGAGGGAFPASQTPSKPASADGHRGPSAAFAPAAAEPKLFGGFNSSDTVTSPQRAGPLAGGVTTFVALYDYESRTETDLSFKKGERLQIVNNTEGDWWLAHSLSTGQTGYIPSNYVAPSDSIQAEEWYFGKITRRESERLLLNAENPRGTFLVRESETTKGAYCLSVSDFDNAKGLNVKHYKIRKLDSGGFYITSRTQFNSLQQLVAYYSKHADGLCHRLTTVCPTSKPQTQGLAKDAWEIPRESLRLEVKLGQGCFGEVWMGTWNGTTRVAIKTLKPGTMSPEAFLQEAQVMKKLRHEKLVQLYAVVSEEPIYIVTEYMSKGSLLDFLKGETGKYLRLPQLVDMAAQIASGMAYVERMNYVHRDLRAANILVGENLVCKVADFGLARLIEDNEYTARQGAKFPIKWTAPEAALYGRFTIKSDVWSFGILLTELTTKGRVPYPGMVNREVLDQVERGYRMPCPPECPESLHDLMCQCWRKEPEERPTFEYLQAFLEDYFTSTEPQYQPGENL
Sequence of GSK-3β (P49841 whole entry, species assumed): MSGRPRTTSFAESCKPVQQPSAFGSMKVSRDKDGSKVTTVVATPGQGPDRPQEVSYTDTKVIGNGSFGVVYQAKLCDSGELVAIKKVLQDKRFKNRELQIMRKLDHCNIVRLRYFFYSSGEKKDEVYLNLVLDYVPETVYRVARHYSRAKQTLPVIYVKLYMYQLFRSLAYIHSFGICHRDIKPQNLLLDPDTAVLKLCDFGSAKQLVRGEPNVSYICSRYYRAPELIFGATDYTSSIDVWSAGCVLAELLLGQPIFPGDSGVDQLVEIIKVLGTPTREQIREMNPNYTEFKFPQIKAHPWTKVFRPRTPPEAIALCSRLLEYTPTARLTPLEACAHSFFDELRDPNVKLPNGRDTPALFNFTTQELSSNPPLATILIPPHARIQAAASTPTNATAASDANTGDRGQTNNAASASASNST
Sequence of CDK7/cyclinH/MAT1 (h) (P50613 whole entry): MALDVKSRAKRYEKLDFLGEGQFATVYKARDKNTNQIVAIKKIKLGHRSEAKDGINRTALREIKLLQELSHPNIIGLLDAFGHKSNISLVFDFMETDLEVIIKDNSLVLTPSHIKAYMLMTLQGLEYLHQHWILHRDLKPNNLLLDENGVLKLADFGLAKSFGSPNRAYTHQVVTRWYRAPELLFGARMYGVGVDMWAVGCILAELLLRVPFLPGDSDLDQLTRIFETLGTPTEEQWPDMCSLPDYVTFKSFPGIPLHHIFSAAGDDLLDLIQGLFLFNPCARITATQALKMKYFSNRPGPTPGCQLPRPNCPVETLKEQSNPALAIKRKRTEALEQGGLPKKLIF
Sequence of CDK7/cyclinH/MAT1 (h) (P51946 whole entry partner): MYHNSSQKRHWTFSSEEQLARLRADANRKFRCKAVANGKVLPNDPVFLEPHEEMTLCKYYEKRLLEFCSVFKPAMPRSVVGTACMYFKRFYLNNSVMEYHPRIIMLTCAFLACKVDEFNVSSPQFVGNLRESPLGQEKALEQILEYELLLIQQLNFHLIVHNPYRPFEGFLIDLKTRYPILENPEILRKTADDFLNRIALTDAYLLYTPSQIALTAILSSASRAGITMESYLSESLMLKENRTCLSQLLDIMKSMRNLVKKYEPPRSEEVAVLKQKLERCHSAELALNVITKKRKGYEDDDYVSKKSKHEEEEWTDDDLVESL
Sequence of CDK7/cyclinH/MAT1 (h) (P51948 whole entry partner): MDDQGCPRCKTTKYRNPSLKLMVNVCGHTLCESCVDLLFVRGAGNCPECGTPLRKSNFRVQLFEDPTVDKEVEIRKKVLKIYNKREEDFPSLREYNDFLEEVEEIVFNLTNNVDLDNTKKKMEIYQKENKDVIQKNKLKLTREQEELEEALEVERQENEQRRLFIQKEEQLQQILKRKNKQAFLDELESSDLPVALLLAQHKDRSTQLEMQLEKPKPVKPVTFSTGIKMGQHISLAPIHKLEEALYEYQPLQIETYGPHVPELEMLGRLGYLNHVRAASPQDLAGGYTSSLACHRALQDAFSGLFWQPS

In the case of `O=C1CN2CCN(CC2)Cc2cc(Cl)cc(c2)Nc2ncnc(n2)-c2ccnc(c2)CCCN1` [Compound 41], in experiment [1], the IC50 was less than 10 nM. The C3.8 score in experiment [2] is listed as 2 (Score 2 = 30-60% inhibition). Further, the “C2 Score” value in experiment [3] was 4 (Score 4=>80% increase in D-glucose incorporation).
On to `CCN1CC(=O)NCCCc2cccc(c2)-c2ncnc(n2)Nc2cccc(c2)C1` [Compound 54], for which, in experiment [2], the C3.8 score is listed as 1 (Score 1 = 10-30% inhibition). In addition, the C3.9 score in experiment [4] is 1 (Score 1 = 10-30% inhibition). In experiment [3], the “C2 Score” value is 4 (Score 4=>80% increase in D-glucose incorporation).
Regarding `CN1CCC(=O)NCCCc2cc(ccn2)-c2ncnc(n2)Nc2cccc(c2)C1` [Compound 3], the IC50 in experiment [1] lay within 10 to 100 nM. For the same compound, the C3.8 score in experiment [2] is listed as 4 (Score 4 = >80% inhibition). In addition, the C3.9 score in experiment [4] was 2 (Score 2 = 30-60% inhibition). For the same compound, the C3.1 score in experiment [5] was 1 (Score 1 = 10-30% inhibition).
The like results for `CN1CCN(CCN2CCC(=O)NCCCc3cc(ccn3)-c3ncnc(n3)Nc3cccc(c3)C2)CC1` [Compound 11] were, in that order, 100 to 1000 nM, 1 (Score 1 = 10-30% inhibition), 1 (Score 1 = 10-30% inhibition) and 1 (Score 1 = 10-30% inhibition).
On to `CCN1CCCc2cc(ccn2)-c2ncnc(n2)Nc2cccc(c2)CCNC(=O)C1` [Compound 30], for which the IC50 in experiment [1] was less than 10 nM. For the same compound, the C3.8 score in experiment [2] was 3 (Score 3 = 60-80% inhibition). The “C2 Score” value in experiment [3] is 4 (Score 4=>80% increase in D-glucose incorporation).
Turning to `CN1CC(=O)NCCCc2cc(ccn2)-c2ncnc(n2)Nc2cccc(c2)C1` [Compound 8], the “C1 Score β” value in experiment [1] is reported as 4 (Score 4=pIC50 value>8). In addition, in experiment [2], the C3.8 score was 2 (Score 2 = 30-60% inhibition). The “C2 Score” value in experiment [3] is 4 (Score 4=>80% increase in D-glucose incorporation).
Take `CN1CC(=O)NCCCc2cc(ccn2)-c2ncnc(n2)Nc2cc(Cl)cc(c2)C1` [Compound 33]: in experiment [1], the IC50 is less than 10 nM. In addition, the C3.8 score in experiment [2] is recorded as 3 (Score 3 = 60-80% inhibition). Further, in experiment [3], the “C2 Score” value is on record as 4 (Score 4=>80% increase in D-glucose incorporation).
With `O=C1CN2CCN(CC2)Cc2cccc(c2)Nc2ncnc(n2)-c2ccnc(c2)CCCN1` [Compound 9], in experiment [1], the “C1 Score β” value was 4 (Score 4=pIC50 value>8). Also, the C3.8 score in experiment [2] was 2 (Score 2 = 30-60% inhibition). Moreover, in experiment [3], the “C2 Score” value is reported as 4 (Score 4=>80% increase in D-glucose incorporation).
Take `CCN1CC(=O)NCCCc2cc(ccn2)-c2ncnc(n2)Nc2cc(Cl)cc(c2)C1` [Compound 34]: the IC50 in experiment [1] is less than 10 nM. Further, the C3.8 score in experiment [2] was 2 (Score 2 = 30-60% inhibition). The “C2 Score” value in experiment [3] is 4 (Score 4=>80% increase in D-glucose incorporation).
Consider `CN1CCCC(=O)NCCCc2cc(ccn2)-c2ncnc(n2)Nc2cccc(c2)C1` [Compound 13], for which the IC50 in experiment [1] was in the range of 10 to 100 nM. For the same compound, in experiment [2], the C3.8 score was 2 (Score 2 = 30-60% inhibition). Further, the C3.9 score in experiment [4] is reported as 2 (Score 2 = 30-60% inhibition). Besides, in experiment [5], the C3.1 score was 2 (Score 2 = 30-60% inhibition).
Take `O=C1NCCCc2cc(ccn2)-c2ncnc(n2)Nc2cccc(c2)CN2CCCC12` (centres unmarked) [Compound 12]: the IC50 in experiment [1] lay in the range of 100 to 1000 nM. Also, the C3.8 score in experiment [2] is 3 (Score 3 = 60-80% inhibition). Moreover, in experiment [4], the C3.9 score was 2 (Score 2 = 30-60% inhibition). Further, the C3.1 score in experiment [5] was 1 (Score 1 = 10-30% inhibition).
Take `O=C1CN2CCN(CC2)Cc2cccc(c2)Nc2ncnc(n2)-c2ccc(F)c(c2)CCCN1` [Compound 66]: the C3.8 score in experiment [2] is 1 (Score 1 = 10-30% inhibition). Also, the “C2 Score” value in experiment [3] is reported as 4 (Score 4=>80% increase in D-glucose incorporation).
Turning to `O=C1NCCCc2cccc(c2)-c2ncnc(n2)Nc2cccc(c2)CN[C@H]1CO` [Compound 46], in experiment [2], the C3.8 score was 1 (Score 1 = 10-30% inhibition). For the same compound, the “C2 Score” value in experiment [3] is given as 4 (Score 4=>80% increase in D-glucose incorporation).

For the origin of these results see patent publication US8778919B2, “Cyclic anilino—pyridinotriazines” (Janssen Pharmaceutica NV, priority 2005, dated 2014).
